The record followed here is patent US8895570B2, “Purine derivatives” (AstraZeneca AB, priority 2010, dated 2014).

A short description of one series: Human plasma stability. It is filed as in vitro ADME. The note with it: 37° C. How it is done: To determine the half life of the test compound in human plasma, incubations were performed at 37° C. in a shaking water bath. Compound (5 μl of 100 μM stock in MeCN) was spiked into 0.495 mL plasma to give final incubation concentration of 1 μM. Aliquots (50 μl) were withdrawn at various time points (typically 0, 20 & 40 sec, 1, 2, 3, 5 & 10 mins) and quenched into MeCN ([…]) followed by analysis for parent compound by LC-MS-MS (MRM mode). The half life was calculated from the decline of test compound peak area over time. • Example 1 (Compound (I)) gave a half life of 0.6 minutes (n=1). • Comparative Example 1 gave a half life of 0.2 minutes (n=1).

The target in the next series is T1, CYP2C19 (Homo sapiens, UniProt P33261).
T1 construct: made in house; host or cells: E. coli (membranes)
As to the kind of experiment: CYP inhibition. It is filed as in vitro ADME. The note with it: expressed in E. coli membranes, substrate 5-mephenyloin, LC-MS-MS; read-out: Mean pIC50 CYP2C19 (converted). How it is done:
(§1) The five major human hepatic Cytochrome P450 isoforms, 1A2, 2C9, 2C19, 2D6 and 3A4 were heterologously expressed in E. coli membranes. Each of the five CYPs were incubated with a cocktail of specific substrates; phenacetin, diclofenac, 5-mephenyloin, bufuralol and midazolam, which are predominantly metabolised by CYP 1A2, 2C9, 2C19, 2D6 and 3A4 respectively plus the test compound.
(§2) The substrates were incubated, at concentrations equivalent to their respective Km values, and LC-MS-MS (MRM mode) was used in order to follow the formation of their specific metabolites. The ability of the test compound to inhibit the CYP isoforms was determined by following any decrease in the amount of the specific metabolites formed at six different inhibitor concentrations.
(§3) The rates of reaction were calculated by measuring MS/MS area units and data analysis was performed by linearising the data using a pseudo Hill plot. The IC50 ie the concentration of the test compound that decreases the amount of metabolite formed by 50% was determined.

In another series the target is T2, CYP2D6 (Homo sapiens, UniProt P10635).
T2 construct: made in house; host or cells: E. coli (membranes)
The series can be described thus: CYP inhibition. The class given is in vitro ADME. The conditions noted are these: expressed in E. coli membranes, substrate bufuralol, LC-MS-MS; read-out: Mean pIC50 CYP2D6 (converted). How it is done:
as §1, §2, §3

A further series has as its target T3, CYP3A4 (Homo sapiens, UniProt P08684).
T3 construct: made in house; host or cells: E. coli (membranes)
The series can be described thus: CYP inhibition. The class given is in vitro ADME. The conditions noted are these: expressed in E. coli membranes, substrate midazolam, LC-MS-MS; read-out: Mean pIC50 CYP3A4 (converted). The procedure:
as §1, §2, §3

The target in another series is T4, CYP1A2 (Homo sapiens, UniProt P05177).
T4 construct: made in house; host or cells: E. coli (membranes)
T4 sequence (P05177 1-516): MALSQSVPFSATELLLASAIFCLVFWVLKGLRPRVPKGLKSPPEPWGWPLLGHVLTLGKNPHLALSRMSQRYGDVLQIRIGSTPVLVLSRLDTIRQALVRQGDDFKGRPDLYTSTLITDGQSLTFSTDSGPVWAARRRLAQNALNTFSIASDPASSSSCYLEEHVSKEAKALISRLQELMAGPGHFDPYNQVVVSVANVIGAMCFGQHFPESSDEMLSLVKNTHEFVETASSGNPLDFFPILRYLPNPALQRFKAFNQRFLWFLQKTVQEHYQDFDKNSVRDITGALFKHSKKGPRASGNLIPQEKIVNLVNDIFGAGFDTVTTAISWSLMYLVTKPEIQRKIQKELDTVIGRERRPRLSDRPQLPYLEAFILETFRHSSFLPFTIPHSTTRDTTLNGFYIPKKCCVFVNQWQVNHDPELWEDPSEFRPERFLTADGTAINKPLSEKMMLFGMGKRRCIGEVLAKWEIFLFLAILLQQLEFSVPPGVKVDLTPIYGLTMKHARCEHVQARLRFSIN
The series can be described thus: CYP inhibition. The class given is in vitro ADME. The conditions noted are these: expressed in E. coli membranes, substrate phenacetin, LC-MS-MS; read-out: Mean pIC50 CYP1A2 (converted). How it is done:
as §1, §2, §3

Another series concerns the target T5, CYP2C9 (Homo sapiens, UniProt P11712).
T5 construct: made in house; host or cells: E. coli (membranes)
The series can be described thus: CYP inhibition. The class given is in vitro ADME. The note with it: expressed in E. coli membranes, substrate diclofenac, LC-MS-MS; read-out: Mean pIC50 CYP2C9 (converted). The procedure: as §1, §2, §3

For a further series, the target named is T6, human TLR7 (Homo sapiens, UniProt Q9NYK1).
T6 construct: expressed in transfected cells; host or cells: HEK293 stably expressing pNiFty2-SEAP reporter; TLR7 in pUNO vector
T6 sequence (Q9NYK1 27-1049): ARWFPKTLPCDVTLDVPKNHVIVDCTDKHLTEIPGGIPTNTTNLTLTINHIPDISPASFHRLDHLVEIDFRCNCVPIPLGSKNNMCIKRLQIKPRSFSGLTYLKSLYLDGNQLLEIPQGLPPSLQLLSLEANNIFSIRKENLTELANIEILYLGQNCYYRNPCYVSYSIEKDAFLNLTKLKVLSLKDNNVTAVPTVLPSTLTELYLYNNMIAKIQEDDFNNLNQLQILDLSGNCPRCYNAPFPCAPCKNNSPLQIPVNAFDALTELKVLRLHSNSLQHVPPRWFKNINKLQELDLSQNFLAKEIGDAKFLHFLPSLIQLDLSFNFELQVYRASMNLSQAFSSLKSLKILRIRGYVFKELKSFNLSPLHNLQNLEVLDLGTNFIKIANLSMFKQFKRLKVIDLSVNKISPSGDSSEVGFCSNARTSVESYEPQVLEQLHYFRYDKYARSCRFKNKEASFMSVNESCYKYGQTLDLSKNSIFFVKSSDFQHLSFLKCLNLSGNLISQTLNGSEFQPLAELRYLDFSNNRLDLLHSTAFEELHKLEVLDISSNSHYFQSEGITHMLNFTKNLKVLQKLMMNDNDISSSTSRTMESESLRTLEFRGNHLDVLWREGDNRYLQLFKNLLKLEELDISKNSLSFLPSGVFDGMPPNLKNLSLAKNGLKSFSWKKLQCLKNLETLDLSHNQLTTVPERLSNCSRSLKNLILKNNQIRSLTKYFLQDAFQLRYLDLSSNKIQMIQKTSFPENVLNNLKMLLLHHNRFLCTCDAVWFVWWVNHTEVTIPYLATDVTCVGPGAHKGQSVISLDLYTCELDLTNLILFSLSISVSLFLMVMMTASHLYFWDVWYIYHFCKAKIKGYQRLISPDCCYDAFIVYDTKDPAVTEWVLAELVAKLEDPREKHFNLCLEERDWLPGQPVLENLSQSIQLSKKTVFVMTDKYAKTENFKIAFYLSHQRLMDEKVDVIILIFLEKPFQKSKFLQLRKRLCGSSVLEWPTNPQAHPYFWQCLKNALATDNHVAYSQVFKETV
As to the kind of experiment: Human TLR7 assay (SEAP reporter in HEK293 cells). The class given is cell-based. The conditions noted are these: HEK293 cells expressing recombinant human TLR7, overnight incubation at 37° C., 0.1% DMSO; read-out: mean pEC50 (SEAP induction) (converted). From the text:
Recombinant human TLR7 was stably expressed in a HEK293 cell line already stably expressing the pNiFty2-SEAP reporter plasmid; integration of the reporter gene was maintained by selection with the antibiotic zeocin. The most common variant sequence of human TLR7 (represented by the EMBL sequence AF240467) was cloned into the mammalian cell expression vector pUNO and transfected into this reporter cell-line. Transfectants with stable expression were selected using the antibiotic blasticidin. In this reporter cell-line, expression of secreted alkaline phosphatase (SEAP) is controlled by an NFkB/ELAM-1 composite promoter comprising five NFkB sites combined with the proximal ELAM-1 promoter. TLR signaling leads to the translocation of NFkB and activation of the promoter results in expression of the SEAP gene. TLR7-specific activation was assessed by determining the level of SEAP produced following overnight incubation of the cells at 37° C. with the standard compound in the presence of 0.1% (v/v) dimethylsulfoxide (DMSO). […] Human Skin Cytokine Production

Series [1] has as its system interleukin-13 (IL-13) production in human skin biopsies. The series can be described thus: Human skin cytokine production (PHA-induced IL-13 in skin biopsies). The conditions noted are these: PHA-stimulated human skin biopsies, 24 hours. It is filed as cell-based. The procedure: Normal human skin biopsies were obtained, with informed consent, from healthy patients undergoing surgical cosmetic procedures. 3 mm full thickness skin biopsies were taken using a biopsy punch. A hole was cut in a Transwell filter (pore size 0.4 μm) using a punch and the skin biopsy inserted in the hole. The filter containing the biopsy was placed in the well of a 24-well culture plate containing 1.25 ml of culture medium (RPMI containing 1% heat-inactivated human serum) with the epidermis facing upwards at the liquid-air interface. Culture plates containing the biopsies were incubated at 37° C., in an atmosphere of 5% CO2 in air, for 24 hours. Biopsies were cultured in the absence or presence of phytohaemagglutinin (PHA) (1 mg/ml) added to the culture medium to induce a cytokine response in the tissue.

Series [2] is described as follows: Maximal solubility in phosphate citrate buffer pH 3.0. The class given is physicochemical.
The mark [3] stands for this setting: compound applied topically at 1/10 max. solubility.
Where [4] appears, read: compound applied topically at max. solubility.

T1 sequence (P33261 whole entry): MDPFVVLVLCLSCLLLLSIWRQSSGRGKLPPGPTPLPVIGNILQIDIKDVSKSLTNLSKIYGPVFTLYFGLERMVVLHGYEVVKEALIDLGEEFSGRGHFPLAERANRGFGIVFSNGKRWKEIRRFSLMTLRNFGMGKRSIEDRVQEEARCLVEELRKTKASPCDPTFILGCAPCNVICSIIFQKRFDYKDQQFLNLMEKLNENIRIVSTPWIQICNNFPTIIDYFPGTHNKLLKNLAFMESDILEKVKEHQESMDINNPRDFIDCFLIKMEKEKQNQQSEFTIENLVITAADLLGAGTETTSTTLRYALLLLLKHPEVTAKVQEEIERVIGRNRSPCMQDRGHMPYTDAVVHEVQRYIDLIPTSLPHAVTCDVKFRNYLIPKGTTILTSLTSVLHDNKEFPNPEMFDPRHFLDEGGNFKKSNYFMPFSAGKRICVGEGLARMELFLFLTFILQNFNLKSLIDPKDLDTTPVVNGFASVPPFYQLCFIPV
T3 sequence (P08684 whole entry): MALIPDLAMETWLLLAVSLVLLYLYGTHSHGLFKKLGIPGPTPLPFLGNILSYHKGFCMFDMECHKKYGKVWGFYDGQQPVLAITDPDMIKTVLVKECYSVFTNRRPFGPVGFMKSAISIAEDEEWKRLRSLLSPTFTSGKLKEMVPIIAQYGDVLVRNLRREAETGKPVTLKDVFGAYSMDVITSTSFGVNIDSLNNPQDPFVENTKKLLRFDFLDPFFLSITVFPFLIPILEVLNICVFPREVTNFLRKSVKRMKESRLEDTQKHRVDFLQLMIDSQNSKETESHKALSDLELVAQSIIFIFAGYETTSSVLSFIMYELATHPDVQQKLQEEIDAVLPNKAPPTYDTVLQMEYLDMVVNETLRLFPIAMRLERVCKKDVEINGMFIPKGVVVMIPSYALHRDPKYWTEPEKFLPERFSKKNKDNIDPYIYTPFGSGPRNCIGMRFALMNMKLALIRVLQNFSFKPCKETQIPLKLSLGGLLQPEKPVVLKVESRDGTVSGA
T2 sequence (P10635 whole entry): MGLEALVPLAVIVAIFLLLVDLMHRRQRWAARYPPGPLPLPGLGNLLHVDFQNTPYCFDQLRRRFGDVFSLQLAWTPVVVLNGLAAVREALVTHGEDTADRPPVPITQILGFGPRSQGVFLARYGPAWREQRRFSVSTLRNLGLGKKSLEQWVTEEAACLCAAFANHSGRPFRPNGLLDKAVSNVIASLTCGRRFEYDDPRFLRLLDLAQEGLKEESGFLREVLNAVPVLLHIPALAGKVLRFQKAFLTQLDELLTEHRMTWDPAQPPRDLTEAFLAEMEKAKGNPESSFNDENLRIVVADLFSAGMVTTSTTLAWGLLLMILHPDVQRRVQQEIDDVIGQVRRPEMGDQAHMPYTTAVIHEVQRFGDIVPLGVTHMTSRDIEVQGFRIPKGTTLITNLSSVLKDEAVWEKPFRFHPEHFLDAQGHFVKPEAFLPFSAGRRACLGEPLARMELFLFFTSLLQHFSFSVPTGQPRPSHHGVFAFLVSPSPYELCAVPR
T5 sequence (P11712 whole entry): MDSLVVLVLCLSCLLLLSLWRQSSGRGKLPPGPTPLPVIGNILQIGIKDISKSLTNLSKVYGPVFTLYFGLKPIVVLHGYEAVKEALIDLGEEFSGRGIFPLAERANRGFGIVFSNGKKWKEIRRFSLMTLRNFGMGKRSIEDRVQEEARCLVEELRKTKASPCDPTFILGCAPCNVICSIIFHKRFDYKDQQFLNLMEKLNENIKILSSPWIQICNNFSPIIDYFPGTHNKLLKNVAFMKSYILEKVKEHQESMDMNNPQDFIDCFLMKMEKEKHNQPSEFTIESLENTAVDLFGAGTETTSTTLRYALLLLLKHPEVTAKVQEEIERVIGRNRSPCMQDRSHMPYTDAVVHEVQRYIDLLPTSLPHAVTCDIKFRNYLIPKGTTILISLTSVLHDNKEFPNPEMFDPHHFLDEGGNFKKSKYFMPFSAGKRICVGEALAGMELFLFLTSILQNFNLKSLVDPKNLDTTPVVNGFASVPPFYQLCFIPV

In general, half-life refers to the time in which the quantity being followed falls by half. Read a low half-life as rapid decline. As to `CCCCOc1nc(N)c2[nH]c(=O)n(CCCN(CCCN3CCCCC3)Cc3cccc(CC(=O)OC)c3)c2n1` [Comparative Example 1, Methyl [3-({[3-(6-amino-2-butoxy-8-oxo-7,8-dihydro-9H-purin-9-yl)propyl][3-(piperidin-1-yl)propyl]amino}methyl)phenyl]acetate, reference compound], the half-life at 1 μM in “Human plasma stability” turned out to be 12 s. Besides, the IC50 is above 30.2 µM on CYP2C19; 13.5 µM on CYP2D6; 0.0132 µM at CYP3A4; above 30.2 µM at CYP1A2; above 29.5 µM at CYP2C9. Also, the EC50 at human TLR7 is 0.158 µM.

Turning to `CCCCOc1nc(N)c2[nH]c(=O)n(CCCN(CCCN3CCCCC3)Cc3ccc(CC(=O)OC)cc3)c2n1` [Example 1, Methyl [4-({[3-(6-amino-2-butoxy-8-oxo-7,8-dihydro-9H-purin-9-yl)propyl][3-(piperidin-1-yl)propyl]amino}methyl)phenyl]acetate], the half-life at 1 μM in the series “Human plasma stability” turned out to be 36 s. For the same compound, the IC50 on CYP2C19 is above 3.02 µM; at CYP2D6, above 3.02 µM; at CYP3A4, 0.468 µM; at CYP1A2 it was above 3.02 µM; on CYP2C9, above 3.02 µM. Besides, the entries for the “% Inhibition of response” value in series [1] (setting [3]) and in [1] (setting [4]) were 55% and 87%, respectively. Moreover, the “IL-13 (pg/ml) Mean ± SEM” value in [1] (setting [3]) came out at 4.8 ± 0.8 pg/mL; in series [1] (setting [4]) it was 1.9 ± 0.8 pg/mL. The “maximal solubility in phosphate citrate buffer pH 3.0” value in [2] is given as 4.1-4.4 % w/w. Besides, the EC50 at human TLR7 is 0.251 µM.
